Measurements published in patent US5063245A, “Corticotropin-releasing factor antagonism compounds” (Nova Pharmaceutical Corporation, priority 1990, dated 1991).
Entries after “also recorded” stand apart in the source; their conditions may differ. Where two headings read alike, the source gives them in different places. Ends that are not written are not given here.

Columns and labels:
adenylate cyclase = assay: Stimulation of adenylate cyclase activity by oCRF (rat frontal cortex); type: biochemical; settings: 10^-6 M oCRF, 37° C., 10 minutes
Method: Male Sprague-Dawley rats (175-250 g) were sacrificed by decapitation, the frontal cortex was dissected and homogenized in 30 volumes (w/v) of ice-cold buffer (50 mM Tris HCl, 10 mM MgCl2, 2 mM EGTA; pH 7.2 at 22° C.). The homogenate was centrifuged at 40,000×g for 3 minutes (4° C.), the supernatant discarded and the pellet resuspended in original volume of fresh homogenization buffer. Following centrifugation at 40,000×g for 30 minutes, the resulting pellet was suspended to a tissue concentration of 20 mg original wet weight of tissue per mL (approximately 40-60 μg protein/mL). For determination of basal adenylate cyclase activity, assays are carried out at 37° C. for 10 minutes in 250 μL of buffer containing 100 mM Tris HCl, 10 mM MgCl2, 0.4 mM EGTA, 0.1% BSA, 1 mM isobutylmethylxanthine (IBMX), 3 units/tube phosphocreatine kinase, 5 mM creatine phosphate, 100 μM guanosine. Maximal stimulation of adenylate cyclase activity was accomplished by the addition of 10^-6 M oCRF. Stimulated enzyme activity generally represented a 75-95% increase over basal levels. […] Individual data points were expressed as pmoles of cAMP formed/10 minutes/mg protein. Protein content of tissue samples was measured using the BioRad method with bovine serum albumin serving as the standard.

[1] = target: CRF-stimulated adenylate cyclase; assay: Inhibition of CRF-stimulated adenylate cyclase activity (rat frontal cortex); type: biochemical; settings: 1 μM oCRF, 37° C., 10 minutes
Excerpt: CRF antagonist activity is established by the ability of the compounds to antagonize CRF-stimulated adenylate cyclase activity, it having been established that CRF receptors are coupled to a guanine nucleotide regulatory protein that activates adenylate cyclase [G. Aguilera et al., Neuroendocrinology, 43, 79 (1986); G. Battaglia et al., Synapse, 1, 572 (1987)].
Male Sprague-Dawley rats (175-250 g) were sacrificed by decapitation, the frontal cortex was dissected and homogenized in 30 volumes (w/v) of ice-cold buffer (50 mM Tris HCl, 10 mM MgCl2, 2 mM EGTA; pH 7.2 at 22° C.). The homogenate was centrifuged at 40,000×g for 3 minutes (4° C.), the supernatant discarded and the pellet resuspended in original volume of fresh homogenization buffer. Following centrifugation at 40,000×g for 30 minutes, the resulting pellet was suspended to a tissue concentration of 20 mg original wet weight of tissue per mL (approximately 40-60 μg protein/mL). For determination of basal adenylate cyclase activity, assays are carried out at 37° C. for 10 minutes in 250 μL of buffer containing 100 mM Tris HCl, 10 mM MgCl2, 0.4 mM EGTA, 0.1% BSA, 1 mM isobutylmethylxanthine (IBMX), 3 units/tube phosphocreatine kinase, 5 mM creatine phosphate, 100 μM guanosine. Maximal stimulation of adenylate cyclase activity was accomplished by the addition of 10^-6 M oCRF. Stimulated enzyme activity generally represented a 75-95% increase over basal levels. Reactions were initiated by the addition of tissue and terminated by the addition of 150 μL of 50 mM Tris HCl, 45 mM ATP, 2% sodium dodecyl sulfate (SDS), and [^3 H] cAMP (approximately 40,000 dpm). The [^3 H]cAMP was added to each assay tube to monitor recovery of cAMP during subsequent chromatography steps. Separation of [^32 P]cAMP from [^32 P]ATP was accomplished by sequential elution over Dowex and alumina columns. The eluate (4 mL) was collected in 20 mL scintillation vials to which 8 mL of Beckman EP fluor was added. Vials were shaken for 30 minutes prior to measuring ^3 H and ^32 P by scintillation counting. All data were fed directly from the liquid scintillation counter via RS232 port to a VAX 8300 computer. Individual data points were expressed as pmoles of cAMP formed/10 minutes/mg protein. Protein content of tissue samples was measured using the BioRad method with bovine serum albumin serving as the standard.
Determination of antagonist activity was accomplished by addition of at least six concentrations of the compound (10^-8 -10^-4 M), evaluated in triplicate, in the presence of a maximally stimulating concentration of oCRF (1 μM). IC50 values were derived from a log-logit transformation of the data on a Vax 8300.

CRF receptor = target: T1, CRF receptor (Rattus norvegicus, UniProt P35353); assay: In vitro receptor binding: inhibition of specific binding of [125I]tyrosine-oCRF to rat cerebral cortex membranes; settings: [125I]Tyr-oCRF 50-100 pM, 2 hours at room temperature
T1 construct: the cerebral cortex was removed and the tissue homogenized; from tissue; host or cells: cerebral cortex membranes of male Sprague-Dawley rats
T1 sequence (P35353 24-415): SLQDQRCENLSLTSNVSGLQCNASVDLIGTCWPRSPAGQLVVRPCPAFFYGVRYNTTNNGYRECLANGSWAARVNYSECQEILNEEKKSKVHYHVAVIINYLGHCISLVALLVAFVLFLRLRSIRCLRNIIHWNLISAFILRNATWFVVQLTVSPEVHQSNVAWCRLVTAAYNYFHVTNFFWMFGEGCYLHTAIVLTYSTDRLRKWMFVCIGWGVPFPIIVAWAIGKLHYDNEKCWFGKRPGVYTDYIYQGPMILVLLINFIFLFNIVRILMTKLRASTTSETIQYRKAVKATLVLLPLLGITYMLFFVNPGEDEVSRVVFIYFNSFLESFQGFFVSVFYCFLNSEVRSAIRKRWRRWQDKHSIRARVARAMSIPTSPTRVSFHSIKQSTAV
Method: The potency of the compounds of the invention as inhibitors of the specific binding of radiolabeled CRF to rat cerebral cortex membranes was examined using a standard in vitro radioligand binding technique. […] The homogenate was centrifuged at 48,000×g for 10 minutes at 4° C. The supernatant was removed, the tissue pellet suspended in the original volume of fresh homogenization buffer using a Polytron and centrifuged as before. […] Incubation buffer consists of 50 mM Hepes (pH 7.0 at 22° C.) containing 10 mM MgCl2, 2 mM EGTA, 0.1 mM bacitracin, 100 KIU (kallikrein inhibitor units)/mL aprotinin and 0.1% BSA (bovine serum albumin). […] Nonspecific binding was determined in the presence of 1 μM oCRF. The binding reaction was allowed to proceed for 2 hours at room temperature. Bound radioligand was separated from the incubation medium by centrifugation in a Beckman microfuge for 5 minutes at 12,000×g. The supernatant was aspirated and the resulting pellet was washed with 1 mL of cold phosphate buffered saline (pH 7.2) containing 0.01% of Triton X-100.
Tyr-oCRF to rat cortical membranes was determined on at least three separate occasions using 8-10 concentrations of each compound and utilizing triplicate incubations. The IC50 and apparent Hill coefficient for each compound were calculated using a computer-assisted log-logit analysis.

[2] = intracerebroventricular (icv); cited from earlier work
[3] = Inhibition of CRF Binding, Rat Cerebral Cortex Membrane, IC50, Table I, Formula I
[4] = Table I, Formula I, read-out: Inhibition of CRF Binding, Rat Cerebral Cortex Membrane, IC50
[5] = Table II, Formula II (disulfides)
[6] = Table II, Formula II (disulfides), read-out: Inhibition of CRF Binding, Rat Cerebral Cortex Membrane, IC50

| IC50 ([1]; Table I, Formula I) [µM] | IC50 (CRF receptor; [4]) [µM] | Compound | IC50 (CRF receptor; [3]) [µM] | further results |
| --- | --- | --- | --- | --- |
| – | – | oCRF: ovine CRF, a 41 residue straight chain peptide | – | Stimulated enzyme activity, increase over basal levels (adenylate cyclase): 75-95% |
| 19.5 | 16 | Cc1c(SC#N)c(=O)n(-c2ccccc2)n1C [Formula I: Ph, CH3, CH3, SCN, 2,3-dimethyl-5-oxo-1-phenyl-3-pyrazolin-4-yl thiocyanate] | – | – |
| 31.7 | 19.1 | CCc1c(SC#N)c(=O)n(-c2ccccc2)n1C [Formula I: Ph, CH3, CH2 CH3, SCN, 3-ethyl-2-methyl-5-oxo-1-phenyl-3-pyrazolin-4-yl thiocyanate] | – | – |
| – | – | CCc1c(SSc2c(CC)n(C)n(-c3ccccc3)c2=O)c(=O)n(-c2ccccc2)n1C [Formula II: Ph, CH3, C2 H5, 3-ethyl-2-methyl-5-oxo-1-phenyl-3-pyrazolin-4-yl disulfide] | – | IC50 [1, 5]: 3.3 µM; IC50 (CRF receptor; [6]): 3.3 µM |
| 39.9 | 17 | CCn1c(C)c(SC#N)c(=O)n1Cc1ccccc1 [Formula I: CH2 Ph, CH2 CH3, CH3, SCN, 1-benzyl-2-ethyl-3-methyl-5-oxo-3-pyrazolin-4-yl thiocyanate] | – | – |
| – | – | CRF: corticotropin releasing factor (SEEPPISLDLTFHLLREVLEMARAEQLAQQAHSNRKLMEII; ends and bridges not checked; UniProt P06850 154-194, looked up) | – | effect of icv injection of CRF (in words) [2]: elicits behavioral activation; also recorded: produces a long-lasting activation of the electroencephalogram; also recorded: stimulates the sympathoadrenomedullary pathway; also recorded: increases heart rate and blood pressure; also recorded: increases oxygen consumption; also recorded: alters gastrointestinal activity; also recorded: suppresses food consumption; also recorded: compromises immune function |
| 9.1 | 8.6 | Cc1ccc(-n2c(=O)c(SC#N)c(C)n2C)cc1 [Formula I: 4-CH3 Ph, CH3, CH3, SCN, 2,3-dimethyl-5-oxo-1-(4-methylphenyl)-3-pyrazolin-4-yl thiocyanate] | – | – |
| – | – | CCn1c(C)c(SSc2c(C)n(CC)n(Cc3ccccc3)c2=O)c(=O)n1Cc1ccccc1 [Formula II: CH2 Ph, C2 H5, CH3, 1-benzyl-2-ethyl-3-methyl-5-oxo-3-pyrazolin-4-yl disulfide] | – | IC50 [1, 5]: 3.8 µM; IC50 (CRF receptor; [6]): 4.3 µM |
| 6.9 | 15.5 | Cc1c(SC#N)c(=O)n(-c2cccc(C#N)c2)n1C [Formula I: 3-CNPh, CH3, CH3, SCN, 2,3-dimethyl-5-oxo-1-(3-cyanophenyl)-3-pyrazolin-4-yl thiocyanate] | – | – |

| Compound | IC50 ([1]; Table I, Formula I) [µM] | IC50 (CRF receptor; [4]) [µM] | IC50 (CRF receptor; [3]) [µM] | further results |
| --- | --- | --- | --- | --- |
| CCn1c(C)c(SC#N)c(=O)n1CC [Formula I: C2 H5, C2 H5, CH3, SCN, 1,2-diethyl-3-methyl-5-oxo-3-pyrazolin-4-yl thiocyanate] | 29.4 | – | 111 | – |
| CCn1c(C)c(SC#N)c(=O)n1-c1ccc(Cl)c(Cl)c1 [Formula I: 3,4 Cl2 Ph, C2 H5, CH3, SCN, 2-ethyl-3-methyl-5-oxo-1-(3,4-dichlorophenyl)-3-pyrazolin-4-yl thiocyanate] | 1.4 | – | 4.9 | – |
| Cc1c(SC#N)c(=O)n(C)n1Cc1ccccc1 [2-benzyl-1,3-dimethyl-5-oxo-3-pyrazolin-4-yl thiocyanate, hemifumarate] | 40.1 | – | 33.6 | – |
| Cc1c(SC(Cl)(Cl)Cl)c(=O)n(-c2ccccc2)n1C [Formula I: Ph, CH3, CH3, SCCl3, 2,3-Dimethyl-5-Oxo-1-Phenyl-3-4-trichloromethylthio-Pyrazoline] | 9.6 | – | 20.4 | – |
